Test results as given in the supplement of paper PMC4862054.

tested on: Hs578T; assay: normalised response (% of control), CellTox Green; higher = less cell death (100 = DMSO, 0 = benzethonium chloride kill control); conditions: incubation time: 72 h
Summary of the method: (§1)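 Two readouts were taken after 72 h: CellTox Green fluorescence (485/520 nm) first, then CellTiter-Glo luminescence after 10 min at room temperature. Breast cancer cell lines had been seeded as 20 µl suspension into 384-well plates holding compound at 5 concentrations in 10-fold steps across a compound-specific 10,000-fold range. Each value is a normalised signal at a single concentration, with plates scaled to 0.1 % DMSO (100) and a positive kill control (0).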

Row | SMILES | normalised response [%]
1 | CCN(CC)CCOc1ccc(C(=C(Cl)c2ccccc2)c2ccccc2)cc1 [Clomifene] (100 nM) | 75.9
2 | NC1(c2ccc(-c3nc4ccn5c(=O)[nH]nc5c4cc3-c3ccccc3)cc2)CCC1 [MK-2206] (10 nM) | 96.1
3 | NC(=O)c1cccc2cn(-c3ccc([C@@H]4CCCNC4)cc3)nc12 [MK-4827] (100 nM) | 116
4 | O=C(c1cc(Cc2n[nH]c(=O)c3ccccc23)ccc1F)N1CCN(C(=O)C2CC2)CC1 [Olaparib] (100 nM) | 110
5 | CN1CCN(c2nc(C3=C(c4c[nH]c5ccccc45)C(=O)NC3=O)c3ccccc3n2)CC1 [Sotrastaurin] (100 nM) | 93.3
6 | COc1cc2c(N3CCN(C(=O)Nc4ccc(OC(C)C)cc4)CC3)ncnc2cc1OCCCN1CCCCC1 [Tandutinib] (10 nM) | 69.4
7 | CN1CCc2c(c3ccccc3n2Cc2ccc(C(=O)NO)cc2)C1 [Tubastatin A] (100 nM) | 110

tested on: MDA-MB-468; assay: as above; conditions: incubation time: 72 h
Summary of the method: as §1

Row | SMILES | normalised response [%]
8 | Cc1cc2c(F)c(Oc3ncnn4cc(OC[C@@H](C)O)c(C)c34)ccc2[nH]1 [Brivanib] (10 nM) | 91.2
9 | CCN(CC)CCOc1ccc(C(=C(Cl)c2ccccc2)c2ccccc2)cc1 [Clomifene] (100 nM) | 91.3
10 | NC1(c2ccc(-c3nc4ccn5c(=O)[nH]nc5c4cc3-c3ccccc3)cc2)CCC1 [MK-2206] (10 nM) | 139
11 | NC(=O)c1cccc2cn(-c3ccc([C@@H]4CCCNC4)cc3)nc12 [MK-4827] (100 nM) | 136
12 | CN1CCN(c2nc(C3=C(c4c[nH]c5ccccc45)C(=O)NC3=O)c3ccccc3n2)CC1 [Sotrastaurin] (100 nM) | 162
13 | COc1cc2c(N3CCN(C(=O)Nc4ccc(OC(C)C)cc4)CC3)ncnc2cc1OCCCN1CCCCC1 [Tandutinib] (10 nM) | 63.1

tested on: HDQ-P1; assay: as above; conditions: incubation time: 72 h
Summary of the method: as §1

Row | SMILES | normalised response [%]
14 | Cc1cc2c(F)c(Oc3ncnn4cc(OC[C@@H](C)O)c(C)c34)ccc2[nH]1 [Brivanib] (10 nM) | 72.3
15 | Nc1nc(Cl)nc2c1ncn2[C@@H]1O[C@H](CO)[C@@H](O)[C@@H]1F [Clofarabine] (100 nM) | 100
16 | CCN(CC)CCOc1ccc(C(=C(Cl)c2ccccc2)c2ccccc2)cc1 [Clomifene] (100 nM) | 97.7
17 | NC1(c2ccc(-c3nc4ccn5c(=O)[nH]nc5c4cc3-c3ccccc3)cc2)CCC1 [MK-2206] (10 nM) | 114
18 | NC(=O)c1cccc2cn(-c3ccc([C@@H]4CCCNC4)cc3)nc12 [MK-4827] (100 nM) | 78
19 | O=C(c1cc(Cc2n[nH]c(=O)c3ccccc23)ccc1F)N1CCN(C(=O)C2CC2)CC1 [Olaparib] (100 nM) | 101
20 | CN1CCN(c2nc(C3=C(c4c[nH]c5ccccc45)C(=O)NC3=O)c3ccccc3n2)CC1 [Sotrastaurin] (100 nM) | 101
21 | COc1cc2c(N3CCN(C(=O)Nc4ccc(OC(C)C)cc4)CC3)ncnc2cc1OCCCN1CCCCC1 [Tandutinib] (10 nM) | 90.3
22 | CN1CCc2c(c3ccccc3n2Cc2ccc(C(=O)NO)cc2)C1 [Tubastatin A] (100 nM) | 101

tested on: HCC1599; assay: as above; conditions: incubation time: 72 h
Summary of the method: as §1

Row | SMILES | normalised response [%]
23 | Cc1cc2c(F)c(Oc3ncnn4cc(OC[C@@H](C)O)c(C)c34)ccc2[nH]1 [Brivanib] (10 nM) | 104
24 | Nc1nc(Cl)nc2c1ncn2[C@@H]1O[C@H](CO)[C@@H](O)[C@@H]1F [Clofarabine] (100 nM) | 103
25 | CCN(CC)CCOc1ccc(C(=C(Cl)c2ccccc2)c2ccccc2)cc1 [Clomifene] (100 nM) | 98.5
26 | NC1(c2ccc(-c3nc4ccn5c(=O)[nH]nc5c4cc3-c3ccccc3)cc2)CCC1 [MK-2206] (10 nM) | 118
27 | NC(=O)c1cccc2cn(-c3ccc([C@@H]4CCCNC4)cc3)nc12 [MK-4827] (100 nM) | 115
28 | O=C(c1cc(Cc2n[nH]c(=O)c3ccccc23)ccc1F)N1CCN(C(=O)C2CC2)CC1 [Olaparib] (100 nM) | 101
29 | CN1CCN(c2nc(C3=C(c4c[nH]c5ccccc45)C(=O)NC3=O)c3ccccc3n2)CC1 [Sotrastaurin] (100 nM) | 97.2
30 | COc1cc2c(N3CCN(C(=O)Nc4ccc(OC(C)C)cc4)CC3)ncnc2cc1OCCCN1CCCCC1 [Tandutinib] (10 nM) | 96.8
31 | CN1CCc2c(c3ccccc3n2Cc2ccc(C(=O)NO)cc2)C1 [Tubastatin A] (100 nM) | 99.9

tested on: DU-4475; assay: as above; conditions: incubation time: 72 h
Summary of the method: as §1

Row | SMILES | normalised response [%]
32 | Cc1cc2c(F)c(Oc3ncnn4cc(OC[C@@H](C)O)c(C)c34)ccc2[nH]1 [Brivanib] (10 nM) | 104
33 | Nc1nc(Cl)nc2c1ncn2[C@@H]1O[C@H](CO)[C@@H](O)[C@@H]1F [Clofarabine] (100 nM) | 114
34 | CCN(CC)CCOc1ccc(C(=C(Cl)c2ccccc2)c2ccccc2)cc1 [Clomifene] (100 nM) | 100
35 | NC1(c2ccc(-c3nc4ccn5c(=O)[nH]nc5c4cc3-c3ccccc3)cc2)CCC1 [MK-2206] (10 nM) | 103
36 | NC(=O)c1cccc2cn(-c3ccc([C@@H]4CCCNC4)cc3)nc12 [MK-4827] (100 nM) | 101
37 | O=C(c1cc(Cc2n[nH]c(=O)c3ccccc23)ccc1F)N1CCN(C(=O)C2CC2)CC1 [Olaparib] (100 nM) | 101
38 | CN1CCN(c2nc(C3=C(c4c[nH]c5ccccc45)C(=O)NC3=O)c3ccccc3n2)CC1 [Sotrastaurin] (100 nM) | 99.6
39 | COc1cc2c(N3CCN(C(=O)Nc4ccc(OC(C)C)cc4)CC3)ncnc2cc1OCCCN1CCCCC1 [Tandutinib] (10 nM) | 98
40 | CN1CCc2c(c3ccccc3n2Cc2ccc(C(=O)NO)cc2)C1 [Tubastatin A] (100 nM) | 104

tested on: CAL-85-1; assay: as above; conditions: incubation time: 72 h
Summary of the method: as §1

Row | SMILES | normalised response [%]
41 | Cc1cc2c(F)c(Oc3ncnn4cc(OC[C@@H](C)O)c(C)c34)ccc2[nH]1 [Brivanib] (10 nM) | 106
42 | Nc1nc(Cl)nc2c1ncn2[C@@H]1O[C@H](CO)[C@@H](O)[C@@H]1F [Clofarabine] (100 nM) | 113
43 | CCN(CC)CCOc1ccc(C(=C(Cl)c2ccccc2)c2ccccc2)cc1 [Clomifene] (100 nM) | 106
44 | NC1(c2ccc(-c3nc4ccn5c(=O)[nH]nc5c4cc3-c3ccccc3)cc2)CCC1 [MK-2206] (10 nM) | 95.4
45 | NC(=O)c1cccc2cn(-c3ccc([C@@H]4CCCNC4)cc3)nc12 [MK-4827] (100 nM) | 102
46 | O=C(c1cc(Cc2n[nH]c(=O)c3ccccc23)ccc1F)N1CCN(C(=O)C2CC2)CC1 [Olaparib] (100 nM) | 103
47 | CN1CCN(c2nc(C3=C(c4c[nH]c5ccccc45)C(=O)NC3=O)c3ccccc3n2)CC1 [Sotrastaurin] (100 nM) | 113
48 | COc1cc2c(N3CCN(C(=O)Nc4ccc(OC(C)C)cc4)CC3)ncnc2cc1OCCCN1CCCCC1 [Tandutinib] (10 nM) | 99
49 | CN1CCc2c(c3ccccc3n2Cc2ccc(C(=O)NO)cc2)C1 [Tubastatin A] (100 nM) | 102

tested on: MDA-MB-436; assay: as above; conditions: incubation time: 72 h
Summary of the method: as §1

Row | SMILES | normalised response [%]
50 | Cc1cc2c(F)c(Oc3ncnn4cc(OC[C@@H](C)O)c(C)c34)ccc2[nH]1 [Brivanib] (10 nM) | 96
51 | Nc1nc(Cl)nc2c1ncn2[C@@H]1O[C@H](CO)[C@@H](O)[C@@H]1F [Clofarabine] (100 nM) | 102
52 | NC1(c2ccc(-c3nc4ccn5c(=O)[nH]nc5c4cc3-c3ccccc3)cc2)CCC1 [MK-2206] (10 nM) | 95.6
53 | O=C(c1cc(Cc2n[nH]c(=O)c3ccccc23)ccc1F)N1CCN(C(=O)C2CC2)CC1 [Olaparib] (100 nM) | 88.4
54 | CN1CCN(c2nc(C3=C(c4c[nH]c5ccccc45)C(=O)NC3=O)c3ccccc3n2)CC1 [Sotrastaurin] (100 nM) | 96.6
55 | COc1cc2c(N3CCN(C(=O)Nc4ccc(OC(C)C)cc4)CC3)ncnc2cc1OCCCN1CCCCC1 [Tandutinib] (10 nM) | 101
56 | CN1CCc2c(c3ccccc3n2Cc2ccc(C(=O)NO)cc2)C1 [Tubastatin A] (100 nM) | 109

tested on: CAL-148; assay: as above; conditions: incubation time: 72 h
Summary of the method: as §1

Row | SMILES | normalised response [%]
57 | Cc1cc2c(F)c(Oc3ncnn4cc(OC[C@@H](C)O)c(C)c34)ccc2[nH]1 [Brivanib] (10 nM) | 103
58 | Nc1nc(Cl)nc2c1ncn2[C@@H]1O[C@H](CO)[C@@H](O)[C@@H]1F [Clofarabine] (100 nM) | 92.7
59 | CCN(CC)CCOc1ccc(C(=C(Cl)c2ccccc2)c2ccccc2)cc1 [Clomifene] (100 nM) | 96.2
60 | NC(=O)c1cccc2cn(-c3ccc([C@@H]4CCCNC4)cc3)nc12 [MK-4827] (100 nM) | 104
61 | O=C(c1cc(Cc2n[nH]c(=O)c3ccccc23)ccc1F)N1CCN(C(=O)C2CC2)CC1 [Olaparib] (100 nM) | 79.6
62 | CN1CCN(c2nc(C3=C(c4c[nH]c5ccccc45)C(=O)NC3=O)c3ccccc3n2)CC1 [Sotrastaurin] (100 nM) | 98.4
63 | CN1CCc2c(c3ccccc3n2Cc2ccc(C(=O)NO)cc2)C1 [Tubastatin A] (100 nM) | 99.3

tested on: MDA-MB-453; assay: as above; conditions: incubation time: 72 h
Summary of the method: as §1

Row | SMILES | normalised response [%]
64 | Cc1cc2c(F)c(Oc3ncnn4cc(OC[C@@H](C)O)c(C)c34)ccc2[nH]1 [Brivanib] (10 nM) | 109
65 | Nc1nc(Cl)nc2c1ncn2[C@@H]1O[C@H](CO)[C@@H](O)[C@@H]1F [Clofarabine] (100 nM) | 106
66 | CCN(CC)CCOc1ccc(C(=C(Cl)c2ccccc2)c2ccccc2)cc1 [Clomifene] (100 nM) | 104
67 | NC1(c2ccc(-c3nc4ccn5c(=O)[nH]nc5c4cc3-c3ccccc3)cc2)CCC1 [MK-2206] (10 nM) | 110
68 | NC(=O)c1cccc2cn(-c3ccc([C@@H]4CCCNC4)cc3)nc12 [MK-4827] (100 nM) | 91.6
69 | O=C(c1cc(Cc2n[nH]c(=O)c3ccccc23)ccc1F)N1CCN(C(=O)C2CC2)CC1 [Olaparib] (100 nM) | 103
70 | CN1CCN(c2nc(C3=C(c4c[nH]c5ccccc45)C(=O)NC3=O)c3ccccc3n2)CC1 [Sotrastaurin] (100 nM) | 97.8
71 | COc1cc2c(N3CCN(C(=O)Nc4ccc(OC(C)C)cc4)CC3)ncnc2cc1OCCCN1CCCCC1 [Tandutinib] (10 nM) | 90.3
72 | CN1CCc2c(c3ccccc3n2Cc2ccc(C(=O)NO)cc2)C1 [Tubastatin A] (100 nM) | 107

tested on: MDA-MB-231; assay: normalised response (% of control), CellTiter-Glo; higher = more viable cells (100 = DMSO, 0 = benzethonium chloride kill control); conditions: incubation time: 72 h
Protocol: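 DSRT, 72 h incubation, CellTox Green / CellTiter-Glo readout. Signal is normalised to DMSO and benzethonium chloride controls. Value is the normalised response at dose 3.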

Row | SMILES | normalised response [%]
73 | Cc1cc2c(F)c(Oc3ncnn4cc(OC[C@@H](C)O)c(C)c34)ccc2[nH]1 [Brivanib] (10 nM) | 111
74 | Nc1nc(Cl)nc2c1ncn2[C@@H]1O[C@H](CO)[C@@H](O)[C@@H]1F [Clofarabine] (100 nM) | 83.9
75 | CCN(CC)CCOc1ccc(C(=C(Cl)c2ccccc2)c2ccccc2)cc1 [Clomifene] (100 nM) | 106
76 | NC1(c2ccc(-c3nc4ccn5c(=O)[nH]nc5c4cc3-c3ccccc3)cc2)CCC1 [MK-2206] (10 nM) | 108
77 | NC(=O)c1cccc2cn(-c3ccc([C@@H]4CCCNC4)cc3)nc12 [MK-4827] (100 nM) | 106
78 | O=C(c1cc(Cc2n[nH]c(=O)c3ccccc23)ccc1F)N1CCN(C(=O)C2CC2)CC1 [Olaparib] (100 nM) | 93.8
79 | CN1CCN(c2nc(C3=C(c4c[nH]c5ccccc45)C(=O)NC3=O)c3ccccc3n2)CC1 [Sotrastaurin] (100 nM) | 102
80 | COc1cc2c(N3CCN(C(=O)Nc4ccc(OC(C)C)cc4)CC3)ncnc2cc1OCCCN1CCCCC1 [Tandutinib] (10 nM) | 103
81 | CN1CCc2c(c3ccccc3n2Cc2ccc(C(=O)NO)cc2)C1 [Tubastatin A] (100 nM) | 99.9
